In US20220202703A1, “IN SITU GEL-FORMING DELIVERY SYSTEMS, METHODS AND COMPOSITIONS” (Poly-Med, Inc., priority 2019, published 2022):

Test: Erdafitinib batch release study in artificial urine at 37° C., HPLC
Assay type: physicochemical
Conditions: in solution / through in vitro study, HPLC PDA detection
Excerpt: Scope: Load Erdafitinib into a limited number of proprietary delivery systems and perform a batch release study in artificial urine to determine release and stability of the active agent. Erdafitinib sourced from publicly available supplier having 99% purity. Obtained as fine yellow powder. Viscoprene® used as a hydrosetting gel carrier presenting as a high viscosity liquid. An encapsulant was used to provide a diffusion barrier around the Viscoprene/Erdafitinib matrix for some samples.
Formulation 1: Viscoprene and diluent release matrix. Formulation 2: Viscoprene release matrix. Formulation 3: Viscoprene in Encapsulant A. Formulation 4: Viscoprene in Encapsulant B. Step 1: Prepared release matrices (Erdafitinib in Viscoprene) with or without diluent (active matrix). Each study specimen included approximately 12 mg of drug. Step 2: Active matrix was encapsulated for Formulations 3 and 4. Step 3: Formulations were placed in artificial urine (USP method) at 37° C. Step 4: At time points, artificial urine was changed to fresh artificial urine. Step 5: Samples were analyzed for Erdafitinib content by HPLC.
An Isocratic HPLC method (non-stability indicating) able to identify Erdafitinib using a C18 column and water/acetonitrile mobile phase. Calibration curve generated with a R2 value of 0.9999. […] Sample preparation: Erdafitinib mixed readily into Viscoprene matrices. […]

## COc1cc(OC)cc(N(CCNC(C)C)c2ccc3ncc(-c4cnn(C)c4)nc3c2)c1 [Erdafitinib, 1,2-Ethanediamine, N1-(3,5-dimethoxyphenyl)-N2-(1-methylethyl)-N1-(3-(1-methyl-1H-pyrazol-4-yl)-6-quinoxalinyl)-]
  Erdafitinib stability (in words): provisionally stable over a suitable timeframe
Listed as Erdatifinib
  Erdafitinib stability (in words): likely stable through in vitro study for extended duration
